According to patent US7384788B2, “Regulator/promoter for tunable gene expression and metabolite sensing” (priority 2003, dated 2008):
Like-named read-outs stand apart in the source and are kept apart here.

Columns and labels:
[1] = tested on: yhcRQP-luxCDABE gene fusion; assay: Bioluminescence response in yhcS+ strain DPD2436 (MG1655 host); assay type: cell-based, E. coli; conditions: for Concentration of maximum response: strain DPD2436, LB pH 7.0; for treated RLU: strain DPD2436, at concentration of maximum response; for Ratio: strain DPD2436, treated RLU/control RLU
Source text: A derivative of E. coli strain MG1655 (obtained from Prof. Douglas Berg, Washington University School of Medicine, St. Louis, […].) with the yhcS::TN<Kan> mutation was made by P1clr100Cm mediated transduction using phage grown on strain DPD2410 as a donor and selection for kanamycin resistance. […] Plasmid pDEW655 was moved to E. coli strains MG1655 and DPD2433 by transformation, selecting for Ampicillin resistance to generate strains DPD2436 and DPD2437, respectively. The bioluminescent response of these two strains to pHBA was tested. Aliquots (50 μl) of actively growing cultures at 37° C. in LB medium that had been previously diluted, and from overnight cultures in LB medium with 150 μg/ml Ampicillin were added to 50 μl of LB medium at pH 7.0 containing pHBA as the sodium salt form. Several concentrations of pHBA were tested.
Further characterization of the signals that trigger activation of YhcS, was done using the yhcRQP-luxCDABE gene fusion containing E. coli strains DPD2411 or DPD2436.

[2] = tested on: lysU-luxCDABE gene fusion; conditions: for activation of acid responsive lysU-luxCDABE gene fusion (in words): concentrations tested, 100 minutes; for RLU at 100 minutes: lysU-luxCDABE, pH 7.0
Source text: (§1) Three E. coli strains, each in the same host strain but carrying different, plasmid-borne, promoter-luxCDABE fusions were used. Strain DPD2411 contains a yhcRQP-luxCDABE gene fusion as described in Example 2. Strain DPD2084 contains a yciG-luxCDABE gene fusion that has been previously described. Strain DPD3282 contains a lysU-luxCDABE gene fusion that was part of the LuxA collection of gene fusions, described in Example 2. The plasmid in this strain, pDEW558, contains an E. coli chromosomal segment between nucleotides 4350990 and 4353107 according to the E. coli genomic sequence; the orientation of the chromosomal segment is such that the lysU promoter region controls expression of luxCDABE. Each of these three strains was grown overnight in Vogel-Bonner minimal medium with 0.4% glucose as the carbon source and supplemented with L-proline, L-lysine, uracil and 25 μg/ml Ampicillin. The overnight cultures were diluted into the same medium except lacking Ampicillin and incubated at 37° C. until in mid-exponential growth. Aliquots (50 μl) of these actively growing cultures were added to 50 μl of the same medium at pH 7.0 without Ampicillin but containing various concentrations of sodium acetate or sodium salicylate in the wells of a 96 well, white microplate (Microlite, Dynex Technologies). Immediately after adding the cell culture, the bioluminescence was quantitated in a microplate luminometer in the kinetic mode.

[3] = tested on: yhcRQP-luxCDABE gene fusion; conditions: for activation of expression of yhcRQP-luxCDABE (in words): concentrations tested, 100 minutes; for RLU at 100 minutes: yhcRQP-luxCDABE, pH 7.0
Source text: as §1

[4] = tested on: yciG-luxCDABE gene fusion; conditions: for activation of acid responsive yciG-luxCDABE gene fusion (in words): concentrations tested, 100 minutes; for RLU at 100 minutes: yciG-luxCDABE, pH 7.0
Source text: as §1

[5] = target: BenM (Acinetobacter baylyi, UniProt O68014); conditions: benzoic acid alone; cited from earlier work
Sequence of BenM (O68014 whole entry, the tested form may be a part): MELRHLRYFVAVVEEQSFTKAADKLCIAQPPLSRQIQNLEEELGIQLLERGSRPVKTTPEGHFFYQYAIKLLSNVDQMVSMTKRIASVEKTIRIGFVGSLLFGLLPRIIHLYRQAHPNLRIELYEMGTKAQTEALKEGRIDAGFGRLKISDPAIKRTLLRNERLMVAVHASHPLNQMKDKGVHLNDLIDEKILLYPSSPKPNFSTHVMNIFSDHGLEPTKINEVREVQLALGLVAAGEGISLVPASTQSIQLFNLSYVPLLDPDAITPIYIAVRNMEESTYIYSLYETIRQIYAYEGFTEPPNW

[6] = tested on: yhcRQP-luxCDABE gene fusion; assay: Bioluminescence activation test in strain DPD2411, LB medium pH 7.0; assay type: cell-based, E. coli; conditions: Experiment code A; for Concentration of maximum response: strain DPD2411, LB pH 7.0; for treated RLU: strain DPD2411, at concentration of maximum response; for Ratio: strain DPD2411, treated RLU/control RLU
Source text: A derivative of E. coli strain MG1655 (obtained from Prof. Douglas Berg, Washington University School of Medicine, St. Louis, […].) with the yhcS::TN<Kan> mutation was made by P1clr100Cm mediated transduction using phage grown on strain DPD2410 as a donor and selection for kanamycin resistance. The presence of the yhcS::TN<Kan> mutation in one of the resultant transductants, named DPD2433, was confirmed by PCR amplification. Plasmid pDEW655 was moved to E. coli strains MG1655 and DPD2433 by transformation, selecting for Ampicillin resistance to generate strains DPD2436 and DPD2437, respectively. The bioluminescent response of these two strains to pHBA was tested. Aliquots (50 μl) of actively growing cultures at 37° C. in LB medium that had been previously diluted, and from overnight cultures in LB medium with 150 μg/ml Ampicillin were added to 50 μl of LB medium at pH 7.0 containing pHBA as the sodium salt form. Several concentrations of pHBA were tested.
Further characterization of the signals that trigger activation of YhcS, was done using the yhcRQP-luxCDABE gene fusion containing E. coli strains DPD2411 or DPD2436. […] Several weak, aromatic acid molecules in addition to those shown in the Examples above activated expression.

[7] = tested on: yhcRQP-luxCDABE gene fusion; assay: LuxArray bioluminescent response, strain DPD2411 (tolC- host); assay type: cell-based, E. coli; conditions: for Replica 1 normalized RLU / Replica 2 normalized RLU: LB medium; for upregulation of gene fusion lux-a.pk035.c7 in LuxArray profile: pHCA 10 mM and 5 mM, CA 8 mM and 4 mM; for bioluminescent response of the yhcRQP-luxCDABE gene fusion (in words): time points other than the zero time point

O=C([O-])c1ccccc1O.[Na+] [Sodium salicylate]
Concentration of maximum response ([1]; Experiment code D): 6.2 mM
treated RLU ([1]; Experiment code D): 14.703 RLU
Ratio ([1]; Experiment code D): 77
activation of acid responsive lysU-luxCDABE gene fusion (in words) [2]: did not increase expression
RLU at 100 minutes ([2]; 0.6 mM salicylate): 1.3 RLU
RLU at 100 minutes ([2]; 5.0 mM salicylate): 0.89 RLU
activation of expression of yhcRQP-luxCDABE (in words) [3]: upregulated expression
RLU at 100 minutes ([3]; 0.6 mM salicylate): 7.9 RLU
RLU at 100 minutes ([3]; 5.0 mM salicylate): 26.0 RLU
activation of acid responsive yciG-luxCDABE gene fusion (in words) [4]: did not increase expression
RLU at 100 minutes ([4]; 0.6 mM salicylate): 0.19 RLU
RLU at 100 minutes ([4]; 5.0 mM salicylate): 0.13 RLU

O=C(O)c1ccccc1 [Benzoic acid, benzoic acid]
induction of BenM activity [5]: minimal, if any, induction

O=C([O-])c1ccc(O)cc1.[Na+] [Sodium pHBA]
Concentration of maximum response ([1]; Experiment code C): 50 mM
treated RLU ([1]; Experiment code C): 91.658 RLU
Ratio ([1]; Experiment code C): 145
Concentration of maximum response ([1]; Experiment code D): 50 mM
treated RLU ([1]; Experiment code D): 48.643 RLU
Ratio ([1]; Experiment code D): 248
Concentration of maximum response [6]: 25 mM
treated RLU [6]: 69.678 RLU
Ratio [6]: 302

O=C(O)C=Cc1ccc(O)cc1 [pHCA, para-hydroxycinnamic acid]
Replica 1 normalized RLU ([7]; 5 mM pHCA, 0 min): 0.056 RLU
Replica 2 normalized RLU ([7]; 5 mM pHCA, 0 min): 0.043 RLU
Replica 1 normalized RLU ([7]; 5 mM pHCA, 45 min): 10.695 RLU
Replica 2 normalized RLU ([7]; 5 mM pHCA, 45 min): 9.325 RLU
Replica 1 normalized RLU ([7]; 5 mM pHCA, 90 min): 14.276 RLU
Replica 2 normalized RLU ([7]; 5 mM pHCA, 90 min): 14.754 RLU
Replica 1 normalized RLU ([7]; 5 mM pHCA, 135 min): 13.533 RLU
Replica 2 normalized RLU ([7]; 5 mM pHCA, 135 min): 10.587 RLU
Replica 1 normalized RLU ([7]; 10 mM pHCA, 0 min): 0.056 RLU
Replica 2 normalized RLU ([7]; 10 mM pHCA, 0 min): 0.034 RLU
Replica 1 normalized RLU ([7]; 10 mM pHCA, 45 min): 9.094 RLU
Replica 2 normalized RLU ([7]; 10 mM pHCA, 45 min): 7.31 RLU
Replica 1 normalized RLU ([7]; 10 mM pHCA, 90 min): 14.314 RLU
Replica 2 normalized RLU ([7]; 10 mM pHCA, 90 min): 11.164 RLU
Replica 1 normalized RLU ([7]; 10 mM pHCA, 135 min): 15.283 RLU
Replica 2 normalized RLU ([7]; 10 mM pHCA, 135 min): 12.867 RLU
upregulation of gene fusion lux-a.pk035.c7 in LuxArray profile [7]: several hundred-fold upregulated
bioluminescent response of the yhcRQP-luxCDABE gene fusion (in words) [7]: dramatic upregulation

CCO [ethanol]
Replica 1 normalized RLU ([7]; 3% ethanol, 0 min): 0.024 RLU
Replica 2 normalized RLU ([7]; 3% ethanol, 0 min): 0.038 RLU
Replica 1 normalized RLU ([7]; 3% ethanol, 45 min): 0.024 RLU
Replica 2 normalized RLU ([7]; 3% ethanol, 45 min): 0.029 RLU
Replica 1 normalized RLU ([7]; 3% ethanol, 90 min): 0.022 RLU
Replica 2 normalized RLU ([7]; 3% ethanol, 90 min): 0.026 RLU
Replica 1 normalized RLU ([7]; 3% ethanol, 135 min): 0.012 RLU
Replica 2 normalized RLU ([7]; 3% ethanol, 135 min): 0.014 RLU
Replica 1 normalized RLU ([7]; 5% ethanol, 0 min): 0.022 RLU
Replica 2 normalized RLU ([7]; 5% ethanol, 0 min): 0.037 RLU
Replica 1 normalized RLU ([7]; 5% ethanol, 45 min): 0.014 RLU
Replica 2 normalized RLU ([7]; 5% ethanol, 45 min): 0.017 RLU
Replica 1 normalized RLU ([7]; 5% ethanol, 90 min): 0.022 RLU
Replica 2 normalized RLU ([7]; 5% ethanol, 90 min): 0.017 RLU
Replica 1 normalized RLU ([7]; 5% ethanol, 135 min): 0.015 RLU
Replica 2 normalized RLU ([7]; 5% ethanol, 135 min): 0.014 RLU
bioluminescent response of the yhcRQP-luxCDABE gene fusion (in words) [7]: does not induce increased bioluminescence

O=C([O-])c1ccccc1.[Na+] [Sodium benzoate]
Concentration of maximum response ([1]; Experiment code B): 6.2 mM
treated RLU ([1]; Experiment code B): 3.759 RLU
Ratio ([1]; Experiment code B): 13
Concentration of maximum response ([1]; Experiment code C): 12.5 mM
treated RLU ([1]; Experiment code C): 8.093 RLU
Ratio ([1]; Experiment code C): 12

O=C(O)C=Cc1ccccc1 [CA, cinnamic acid]
Replica 1 normalized RLU ([7]; 4 mM CA, 0 min): 0.026 RLU
Replica 2 normalized RLU ([7]; 4 mM CA, 0 min): 0.062 RLU
Replica 1 normalized RLU ([7]; 4 mM CA, 45 min): 4.092 RLU
Replica 2 normalized RLU ([7]; 4 mM CA, 45 min): 2.928 RLU
Replica 1 normalized RLU ([7]; 4 mM CA, 90 min): 5.845 RLU
Replica 2 normalized RLU ([7]; 4 mM CA, 90 min): 4.951 RLU
Replica 1 normalized RLU ([7]; 4 mM CA, 135 min): 5.394 RLU
Replica 2 normalized RLU ([7]; 4 mM CA, 135 min): 3.678 RLU
Replica 1 normalized RLU ([7]; 8 mM CA, 0 min): 0.022 RLU
Replica 2 normalized RLU ([7]; 8 mM CA, 0 min): 0.054 RLU
Replica 1 normalized RLU ([7]; 8 mM CA, 45 min): 4.937 RLU
Replica 2 normalized RLU ([7]; 8 mM CA, 45 min): 3.405 RLU
Replica 1 normalized RLU ([7]; 8 mM CA, 90 min): 8.379 RLU
Replica 2 normalized RLU ([7]; 8 mM CA, 90 min): 6.193 RLU
Replica 1 normalized RLU ([7]; 8 mM CA, 135 min): 6.981 RLU
Replica 2 normalized RLU ([7]; 8 mM CA, 135 min): 5.746 RLU
upregulation of gene fusion lux-a.pk035.c7 in LuxArray profile [7]: several hundred-fold upregulated
bioluminescent response of the yhcRQP-luxCDABE gene fusion (in words) [7]: dramatic upregulation

CC(=O)[O-].[Na+] [acetate, sodium acetate]
activation of acid responsive lysU-luxCDABE gene fusion (in words) [2]: did activate
RLU at 100 minutes ([2]; 80 mM acetate): 1.4 RLU
RLU at 100 minutes ([2]; 160 mM acetate): 6.0 RLU
activation of expression of yhcRQP-luxCDABE (in words) [3]: did not activate expression
RLU at 100 minutes ([3]; 80 mM acetate): 0.14 RLU
RLU at 100 minutes ([3]; 160 mM acetate): 0.08 RLU
activation of acid responsive yciG-luxCDABE gene fusion (in words) [4]: did activate
RLU at 100 minutes ([4]; 80 mM acetate): 0.35 RLU
RLU at 100 minutes ([4]; 160 mM acetate): 0.80 RLU

O=C(O)c1cccc2ccccc12 [1-napthoate]
Concentration of maximum response [6]: 2.5 mM
treated RLU [6]: 29.662 RLU
Ratio [6]: 132
